Where two headings read alike, the source gives them in different places.

The nature of series [1]: Single and multiple-dose open safety and tolerability study, pharmacokinetics of pemirolast potassium tablets in humans. The series is classed as in vivo, human. As to conditions: for Cmax: human, plasma; for Cmax / Cmax, mean: multiple dose, healthy male subjects, N = 6. Here is the method: This study comprised 18 healthy male subjects, 18-45 years of age, and was a single and multiple-dose, open study assessing the safety and tolerability of pemirolast potassium tablets (10 mg, Ulgixal™ tablets) with the doses 10, 30 and 50 mg (containing 8.5, 25.5 and 42.5 mg pemirolast free acid, respectively) b.i.d. (6 subjects in each dose group). The subjects received a single dose on the first day, then b.i.d. for three days and a single dose on the fifth day. The study was performed at the Berzelius Clinical Research Center AB in Linköping, Sweden. All laboratory pharmacokinetic analyses were performed by Quintiles AB, Uppsala, Sweden. Pharmacokinetic calculations were performed by Pharm Assist Sweden AB, Uppsala, Sweden. Mean Cmax data after multiple dosing are shown in and Table 1, and mean plasma concentrations over time on Day 5 are shown in FIG. 1.

Series [2] is described as follows: Toxicokinetics of pemirolast in the dog, 7-day oral repeated dose. Details: species or system dog (Beagles). As to conditions: Beagle, in vivo, 75 mg/kg daily oral, 7th day. An excerpt: There were no major differences in kinetics between males and females.
The conditions of series [3]: dog, in vivo. How it is done:
The study, including all analyses and calculations, were performed by WIL Research, France, in compliance with Good Laboratory Practices (GLP).

The target in another series is hERG potassium channel (Homo sapiens, UniProt Q12809). Here is the method:
This study was performed by PhysioStim, France, a GLP compliant facility.
The effects of pemirolast on hERG currents in HEK-293 cells stably expressing the hERG potassium channel were studied using patch-clamp technique.

Series [4] in a line: Later pharmacokinetic studies in healthy volunteers, multiple doses b.i.d. for three and a half days. The series is classed as in vivo, human. As to conditions: for Cmax: human, plasma, oral, read-out: Actual Cmax. An excerpt: Later pharmacokinetic studies in healthy volunteers (7 to 8 in each group) have shown that actual Cmax values for various multiple doses (b.i.d. for three and a half days) are as follows: […]

Series [5] concerns airway hyperresponsiveness to mannitol challenge in asthma patients. Briefly: Clinical trial: mannitol challenge test (PD15 for mannitol) in asthma patients. The series is classed as in vivo, human. As to conditions: for Mannitol dose tolerated (PD15) at the placebo visit; reduction in AHR/BHR: n=4, FIG. 2. How it is done: This study comprised male and female asthma patients (18 to 46 years of age) with a positive asthma test (as determined by a mannitol challenge test (vide infra) performed within 15 days prior to enrolment at the first screening visit, Visit 1).
It was a double-blind, randomized, placebo-controlled, cross-over trial assessing the efficacy of orally administered single doses of placebo and 40 mg and 400 mg of pemirolast (immediate release tablets containing pemirolast sodium hemihydrate, as well as microcrystalline cellulose, mannitol, copovidone fine, croscarmellose sodium, anhydrous colloidal silica and magnesium stearate) in patients challenged with mannitol inhalation as described below.
The patients were exposed to the different treatments at three separate hospital visits at least 2 (mean 6.8, median 6) days apart. The data reported in FIGS. 2 and 3 below represent the patients that received placebo treatment at the first visit (n=8) or placebo at the second visit (after 40 mg at the first visit (n=4) or after 400 mg at the first visit (n=4)).
All doses were administered 3 hours before initiation of the mannitol challenge test to ensure peak plasma concentrations of pemirolast when the mannitol challenge was performed (blood samples for analysing plasma concentrations of pemirolast were collected 3 hours after drug administration).
There were 5 visits during the trial: A screening visit (Visit 1, within 15 days before Visit 2), three visits for treatment with Investigational Medicinal Products (IMP; pemirolast 40 or 400 mg, or placebo) (Visit 2-4, spaced at least 2 days apart), and a final follow-up visit by telephone (Visit 5, at least 2, but less than 4 days after Visit 4 and within 30 days of Visit 2). […]

Series [6] is described as follows: Clinical trial: plasma pemirolast concentration by LC-MS/MS. The series is classed as in vivo. As to conditions: human, 40 and 400 mg single oral doses, asthma patients. Here is the method: All doses were administered 3 hours before initiation of the mannitol challenge test to ensure peak plasma concentrations of pemirolast when the mannitol challenge was performed (blood samples for analysing plasma concentrations of pemirolast were collected 3 hours after drug administration). All laboratory pharmacokinetic analyses were performed by Clinical Pharmacology, Karolinska University Hospital, Stockholm, Sweden. Briefly, the concentration of pemirolast in human plasma was determined by solid phase extraction and liquid chromatography followed by tandem mass spectrometric detection (LC-MS/MS). The analytical method, utilizing a 200 μL sample aliquot, has a calibration range of 4.00-4000 ng/mL, with a lower limit of quantification (LLOQ) set at 4.00 ng/mL.

Series [7] concerns asthma patients. Kind of series: Clinical trial: FEV1 before and 3 hours after treatment. The series is classed as in vivo, human. As to conditions: 3 hours after an oral dose of 400 mg; 3.58±0.86 L before treatment; mean ±SD, n=22.
For series [8], the system named is 11β-PGF2α (mast cell biomarker prostaglandin D2 metabolite). Briefly: Clinical trial: urinary excretion of PGD2 metabolite 11β-PGF2α (EIA). The series is classed as in vivo, human. As to conditions: patients treated at least 3 days before with 40 mg or 400 mg, 4+4 patients, FIG. 3. How it is done:
A secondary endpoint in the study was to analyse changes in urinary excretion of a metabolite (11β-prostaglandin (PG) F2α) of the lung mast cell mediator/biomarker prostaglandin D2. 11β-PGF2α analysis was performed in unextracted urine samples using a validated enzyme immunoassays (EIA) kit from Cayman Chemical, Ann Arbor, Mich., USA (Item no 516521). […]

The subject of series [9] is asthma patients. Briefly: Clinical trial: adverse events, vital signs and laboratory tests. The series is classed as in vivo, human. As to conditions: single oral doses of 40 mg and 400 mg.
The test system of series [10] is airway or bronchial hyperresponsiveness. As to conditions: 50 mg doses twice daily in humans (Kemp et al 1992); cited from earlier work.
Where [11] appears, read: 10 mg pemirolast potassium (8.5 mg free acid) oral b.i.d.
Setting [12] is: 30 mg pemirolast potassium (25.5 mg free acid) oral b.i.d.
Setting [13] is: 50 mg pemirolast potassium (42.5 mg free acid) oral b.i.d.

hERG potassium channel, sequence (Q12809 whole entry): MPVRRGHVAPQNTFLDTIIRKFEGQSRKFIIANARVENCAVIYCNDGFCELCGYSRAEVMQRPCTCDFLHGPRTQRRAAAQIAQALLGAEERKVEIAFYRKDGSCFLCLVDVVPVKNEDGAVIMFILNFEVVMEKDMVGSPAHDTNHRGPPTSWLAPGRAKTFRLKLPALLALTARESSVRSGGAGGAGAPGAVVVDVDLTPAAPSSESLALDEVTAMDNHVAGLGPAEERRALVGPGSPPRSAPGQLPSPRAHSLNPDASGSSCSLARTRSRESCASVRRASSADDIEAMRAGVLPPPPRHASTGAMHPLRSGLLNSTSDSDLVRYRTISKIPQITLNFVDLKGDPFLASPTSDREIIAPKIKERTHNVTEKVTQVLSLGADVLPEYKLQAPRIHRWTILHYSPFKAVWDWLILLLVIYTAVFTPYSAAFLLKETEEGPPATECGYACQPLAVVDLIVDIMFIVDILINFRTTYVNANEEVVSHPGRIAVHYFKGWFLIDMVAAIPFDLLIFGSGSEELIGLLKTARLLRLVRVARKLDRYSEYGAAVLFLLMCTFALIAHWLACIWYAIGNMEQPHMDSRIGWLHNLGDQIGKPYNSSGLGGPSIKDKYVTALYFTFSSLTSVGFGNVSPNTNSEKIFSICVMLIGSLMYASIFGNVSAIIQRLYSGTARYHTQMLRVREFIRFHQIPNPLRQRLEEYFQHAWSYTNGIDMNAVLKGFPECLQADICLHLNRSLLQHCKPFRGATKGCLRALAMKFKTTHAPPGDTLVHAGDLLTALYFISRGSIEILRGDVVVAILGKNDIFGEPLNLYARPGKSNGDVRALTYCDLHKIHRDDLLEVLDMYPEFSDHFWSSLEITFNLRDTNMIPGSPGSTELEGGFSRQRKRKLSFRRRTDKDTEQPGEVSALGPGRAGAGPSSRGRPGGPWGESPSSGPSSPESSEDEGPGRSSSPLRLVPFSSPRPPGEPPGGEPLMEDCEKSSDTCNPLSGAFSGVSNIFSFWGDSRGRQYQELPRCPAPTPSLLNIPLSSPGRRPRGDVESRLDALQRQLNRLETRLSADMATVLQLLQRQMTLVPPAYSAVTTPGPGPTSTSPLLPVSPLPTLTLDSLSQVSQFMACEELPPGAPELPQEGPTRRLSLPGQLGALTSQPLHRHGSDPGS

Regarding `Cc1cccn2c(=O)c(-c3nnn[nH]3)cnc12` [pemirolast potassium], the Cmax in series [1] (setting [11]) was determined as 730 ng/mL; in series [1] (setting [12]), 2040 ng/mL; in [1] (setting [13]), 3420 ng/mL; in series [2] (female dogs (n = 3)), 150000 ng/mL; in series [2] (male dogs (n = 3)) it was 168000 ng/mL. This compound displayed a Safe chronic dose in series [3] of 75 mg/kg daily. Also, the “Decrease of hERG tail current amplitude” value at hERG potassium channel (2.7 μg/mL) is given as 5.4%; on hERG potassium channel (8 μg/mL), 10.2%; at hERG potassium channel (26.6 μg/mL), 14.1%; at hERG potassium channel (79.9 μg/mL), 19.0%.
For the compound `Cc1cccn2c(=O)c(-c3nnn[nH]3)cnc12` [pemirolast], the “Cmax, mean” value in series [1] (setting [11]) was found to be 730 ng/mL; in series [1] (setting [12]), 2040 ng/mL; in [1] (setting [13]) it was 3420 ng/mL. Further, the “Predicted Cmax” value in [1] (predicted for 125 mg, linear extrapolation from 8.5 mg multiple dose) is 10680 ng/mL; in [1] (predicted for 125 mg, linear extrapolation from 25.5 mg multiple dose), 9980 ng/mL; in series [1] (predicted for 125 mg, linear extrapolation from 42.5 mg multiple dose), 10070 ng/mL; in [1] (predicted for 200 mg, linear extrapolation from 8.5 mg multiple dose) it was 17080 ng/mL; in [1] (predicted for 200 mg, linear extrapolation from 25.5 mg multiple dose) it was 15980 ng/mL; in series [1] (predicted for 200 mg, linear extrapolation from 42.5 mg multiple dose) it was 16120 ng/mL. Moreover, the “Predicted Cmax” value was 34160 ng/mL in [1] (predicted for 400 mg, linear extrapolation from 8.5 mg multiple dose); 31950 ng/mL in series [1] (predicted for 400 mg, linear extrapolation from 25.5 mg multiple dose); 32230 ng/mL in series [1] (predicted for 400 mg, linear extrapolation from 42.5 mg multiple dose). Also, in [4] (80, 200 and 320 mg b.i.d. for three and a half days), the Safety and tolerability entry was “safe and well-tolerated”. The Cmax in series [4] (80 mg b.i.d. for three and a half days) worked out at 8840 ng/mL; in series [4] (200 mg b.i.d. for three and a half days), 32500 ng/mL; in series [4] (320 mg b.i.d. for three and a half days) it was 51000 ng/mL. The “Mannitol PD15” value in [5] (3 hour pre-treatment, single oral dose, asthma patients) is “increased”. Besides, the entries for the “Mannitol dose tolerated (PD15) at the placebo visit; reduction in AHR/BHR” value in [5] (single 40 mg oral dose before the placebo treatment) and in [5] (single 400 mg oral dose at least 3 days before placebo/mannitol) were “not seen” and “tolerated a much higher dose of mannitol”, respectively. In [6], the half-life was 4 to 7 h. For the same compound, in the series with asthma patients [7], the FEV1 came out at 3.55 ± 0.84 L. The “Urinary levels of the PGD2 biomarker (11β-PGF2α), 40 mg versus 400 mg” value in [8] was “did not differ”. The “Adverse events, vital signs, physical examination, laboratory tests” value in the series on asthma patients [9] is “no serious adverse events”. Further, in series [10], the “Effect on airway or bronchial hyperresponsiveness” value was “no effect whatsoever”.

Source of the values: US9415051B1, “Use of pemirolast” (priority 2015, dated 2016).
